Results taken from publication PMC12203311, “Design, synthesis, in silico and in vitro evaluation of pyrrole–indole hybrids as dual tubulin and aromatase inhibitors with potent anticancer activities” (RSC Advances, 2025).
Like-named read-outs stand apart in the source and are kept apart here. Each block holds one compound with its values, some of them ahead of it.

Experiments:
[1] = Cytotoxicity MTT assay, L929; format: cell-based, mouse; conditions: mouse, L929 fibroblast cells; MTT, 48 hours
In short: (§1)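 Seed 10 000 cells per well and let them grow overnight. Treat with compounds in medium for 48 h at 37 °C under 5% CO2. Replace medium with MTT at 0.5 mg mL^−1 for 3 h, dissolve formazan in DMSO, measure at 570 nm, normalise to DMSO control.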

[2] = system: L929 normal mouse fibroblast cell line; test: Cytotoxicity MTT assay, L929; format: cell-based; conditions: IC50 (L929)/IC50 (T47D)
In short: as §1

SNB-19 = test: NCI60 five-dose screen; format: cell-based; conditions: Homo sapiens, SNB-19, CNS cancer; for CC50: read-out: LC50 (the source's name)
NCI-H322M = test: NCI60 five-dose screen; format: cell-based; conditions: Homo sapiens, NSC lung cancer; for CC50: read-out: LC50 (the source's name)
UACC-62 = test: NCI60 five-dose screen; format: cell-based; conditions: Homo sapiens, UACC-62, melanoma; for CC50: read-out: LC50 (the source's name)
786-0 = test: NCI60 five-dose screen; format: cell-based; conditions: Homo sapiens, 786-0, renal cancer; for CC50: read-out: LC50 (the source's name)
KM12 = test: NCI60 five-dose screen; format: cell-based; conditions: Homo sapiens, KM12, colon cancer; for CC50: read-out: LC50 (the source's name)
SK-MEL-28 = test: NCI60 five-dose screen; format: cell-based; conditions: Homo sapiens, SK-MEL-28, melanoma; for CC50: read-out: LC50 (the source's name)
A549/ATCC = test: NCI60 five-dose screen; format: cell-based; conditions: Homo sapiens, NSC lung cancer; for CC50: read-out: LC50 (the source's name)
SNB-75 = test: NCI60 five-dose screen; format: cell-based; conditions: Homo sapiens, SNB-75, CNS cancer; for CC50: read-out: LC50 (the source's name)
NCI/ADR-RES = test: NCI60 five-dose screen; format: cell-based, human; conditions: ovarian cancer; for CC50: read-out: LC50 (the source's name)
TK-10 = test: NCI60 five-dose screen; format: cell-based; conditions: Homo sapiens, TK-10, renal cancer; for CC50: read-out: LC50 (the source's name)
EKVX = test: NCI60 five-dose screen; format: cell-based; conditions: Homo sapiens, NSC lung cancer; for CC50: read-out: LC50 (the source's name)
ACHN = test: NCI60 five-dose screen; format: cell-based; conditions: Homo sapiens, renal cancer; for CC50: read-out: LC50 (the source's name)
Human CYP19 (aromatase) = biological target: T1, Human CYP19 (aromatase) (Homo sapiens, UniProt P11511); test: Aromatase inhibition assay (DBF fluorometric substrate); format: biochemical; conditions: active defined as IC50 < 12.5 µM
T1 construct: purchased GENTEST, Woburn, MA 456260; host or cells: baculovirus/insect cells
T1 sequence (P11511 1-503): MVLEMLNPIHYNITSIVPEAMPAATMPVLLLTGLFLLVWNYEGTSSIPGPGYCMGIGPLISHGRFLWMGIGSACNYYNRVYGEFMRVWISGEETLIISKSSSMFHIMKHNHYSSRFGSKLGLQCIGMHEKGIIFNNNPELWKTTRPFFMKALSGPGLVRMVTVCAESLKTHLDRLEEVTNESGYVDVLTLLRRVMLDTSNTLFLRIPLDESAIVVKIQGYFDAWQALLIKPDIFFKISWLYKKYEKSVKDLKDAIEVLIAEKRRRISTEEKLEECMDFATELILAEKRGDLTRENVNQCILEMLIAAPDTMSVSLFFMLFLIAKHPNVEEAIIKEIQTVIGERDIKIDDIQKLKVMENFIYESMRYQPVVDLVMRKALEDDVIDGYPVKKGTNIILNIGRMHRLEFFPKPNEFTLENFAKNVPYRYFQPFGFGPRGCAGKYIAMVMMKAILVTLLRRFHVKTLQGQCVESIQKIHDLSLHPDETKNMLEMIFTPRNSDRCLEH
In short: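 Insect-cell-expressed human CYP19 Supersomes with oxidoreductase turned over DBF for 30 min at 37 °C after a 10 min 37 °C pre-incubation with cofactor. NaOH quench; product measured by fluorescence, excitation 490 nm, emission 530 nm.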

SF-539 = test: NCI60 five-dose screen; format: cell-based; conditions: Homo sapiens, SF-539, CNS cancer; for CC50: read-out: LC50 (the source's name)
NCI-H522 = test: NCI60 five-dose screen; format: cell-based; conditions: Homo sapiens, NCI-H522, NSC lung cancer; for CC50: read-out: LC50 (the source's name)
SK-MEL-5 = test: NCI60 five-dose screen; format: cell-based, human; conditions: Homo sapiens; for CC50: SK-MEL-5, SK-MEL-5, melanoma, read-out: LC50 (the source's name); for GI50: SK-MEL-5, melanoma
OVCAR-4 = test: NCI60 five-dose screen; format: cell-based; conditions: Homo sapiens, OVCAR-4, ovarian cancer; for CC50: read-out: LC50 (the source's name)
COLO 205 = test: NCI60 five-dose screen; format: cell-based, human; conditions: for CC50: read-out: LC50 (the source's name)
K-562 = test: NCI60 five-dose screen; format: cell-based; conditions: Homo sapiens, K562, K-562, leukemia; for CC50: read-out: LC50 (the source's name)
[3] = Homo sapiens, COLO 205, COLO 205, colon cancer
[4] = Homo sapiens, COLO 205, colon cancer

IC50 (Human CYP19 (aromatase)): 4 ± 1 µM
Structure (SMILES): O=C(N/N=C/c1cc(Br)c[nH]1)c1[nH]c2ccc(Br)cc2c1-c1ccccc1 [Derivative 3e, (E)-5-Bromo-N′-((4-bromo-1H-pyrrol-2-yl)methylene)-3-phenyl-1H-indole-2-carbohydrazide]
IC50 at 48 h [1]: 22.3 ± 11.9 µM
Selectivity index (SI) [2]: 9.29
GI50 (SNB-19): 0.33 µM
CC50 (SNB-19): 34.5 µM
GI50 (NCI-H322M): 0.578 µM
CC50 (NCI-H322M): 38.8 µM
GI50 (UACC-62): 0.439 µM
CC50 (UACC-62): 17.7 µM
GI50 (786-0): 0.727 µM
CC50 (786-0): 55.9 µM
GI50 (KM12): 0.301 µM
CC50 (KM12): 16.3 µM
GI50 (SK-MEL-28): 0.612 µM
CC50 (SK-MEL-28): 43.9 µM
GI50 (A549/ATCC): 0.395 µM
CC50 (A549/ATCC): 56.4 µM
GI50 (SNB-75): 0.475 µM
CC50 (SNB-75): 51 µM
GI50 (NCI/ADR-RES; Homo sapiens): 0.197 µM
CC50 (NCI/ADR-RES; Homo sapiens): 0.97 µM
CC50 (NCI/ADR-RES): 0.971 µM
GI50 (TK-10): 4.21 µM
CC50 (TK-10): 44.9 µM
GI50 (EKVX): 0.62 µM
CC50 (EKVX): 34.3 µM
GI50 (ACHN): 0.418 µM
CC50 (ACHN): 23.5 µM
GI50 (SF-539): 0.214 µM
CC50 (SF-539): 25.5 µM
GI50 (NCI-H522): 0.185 µM
CC50 (NCI-H522): 19.1 µM
CC50 (SK-MEL-5): 1.22 µM
GI50 (SK-MEL-5): 0.195 µM
GI50 (OVCAR-4): 1.35 µM
CC50 (OVCAR-4): 40.5 µM
CC50 (COLO 205; COLO 205, colon cancer): 0.884 µM
CC50 (COLO 205; [3]): 0.89 µM
GI50 (COLO 205; [4]): 0.192 µM
GI50 (K-562): 0.393 µM
CC50 (K-562): > 100 µM

IC50 (Human CYP19 (aromatase)): 1.5 ± 0.3 µM
Structure (SMILES): O=C(N/N=C/c1cc(Br)c(Br)[nH]1)c1[nH]c2ccc(Br)cc2c1-c1ccccc1 [Derivative 3f, (E)-5-Bromo-N′-((4,5-dibromo-1H-pyrrol-2-yl)methylene)-3-phenyl-1H-indole-2-carbohydrazide]
IC50 at 48 h [1]: 47.9 ± 0.5 µM
Selectivity index (SI) [2]: 2.51
GI50 (SNB-19): 3.47 µM
CC50 (SNB-19): 39.3 µM
GI50 (NCI-H322M): 3.73 µM
CC50 (NCI-H322M): 62.8 µM
GI50 (UACC-62): 1.2 µM
CC50 (UACC-62): 38 µM
GI50 (786-0): 4.91 µM
CC50 (786-0): 64.1 µM
GI50 (KM12): 2.46 µM
CC50 (KM12): 35.3 µM
GI50 (SK-MEL-28): 5.1 µM
CC50 (SK-MEL-28): 47 µM
GI50 (A549/ATCC): 3.11 µM
CC50 (A549/ATCC): 37.6 µM
GI50 (SNB-75): 1.08 µM
CC50 (SNB-75): 64.4 µM
GI50 (NCI/ADR-RES; Homo sapiens): 1.14 µM
CC50 (NCI/ADR-RES; Homo sapiens): 9.73 µM
GI50 (TK-10): 6.8 µM
CC50 (TK-10): 49.5 µM
GI50 (EKVX): 3.45 µM
CC50 (EKVX): 44.8 µM
GI50 (ACHN): 2.59 µM
CC50 (ACHN): 35.5 µM
GI50 (SF-539): 1.78 µM
CC50 (SF-539): 15.7 µM
GI50 (NCI-H522): 0.623 µM
CC50 (NCI-H522): 23.2 µM
CC50 (SK-MEL-5): 8.65 µM
GI50 (SK-MEL-5): 1.72 µM
GI50 (OVCAR-4): 5.2 µM
CC50 (OVCAR-4): 45.8 µM
CC50 (COLO 205; [3]): 48.8 µM
GI50 (COLO 205; [4]): 3.36 µM
GI50 (K-562): 1.93 µM
CC50 (K-562): 76.4 µM
